Source: patent US20250090537A1, “ANTIVIRAL COMPOUNDS AND METHODS OF MAKING AND USING THE SAME” (Gilead Sciences, Inc., priority 2023, published 2025)

Tests used:
RSV strain A2 = assay: RSV Cellomics assay for RSV A2 antiviral activity (EC50-RSV-Hep2-96-Cellomics); type: cell-based; settings: human respiratory syncytial virus, HEp-2, 72 h; Hep2 cells infected with RSV strain A2, MOI=0.05, 3 days; Example B1
Experimental: Example B1: RSV Cellomics Assay for RSV A2 Antiviral Activity (EC50-RSV-Hep2-96-Cellomics) 8×10^3 Hep2 cells are seeded into 96 well plates in 100 μL of media (DMEM supplemented with GlutaMAX, 10% FBS and Pen/Strep) and briefly spun at 50×g for 1 minute to attach cells. Cells were further allowed to attach with overnight incubation at 37° C.+5% CO2. The following day, the media was aspirated and 100 μL of fresh DMEM media containing 2% FBS was added. A three-fold dilution series of compounds of interest are then added to the plate using the Tecan D300e dispenser and the plate is normalized to the well with the highest volume of DMSO. The cells are next infected by adding 100 μL of media containing RSV strain A2 at an MOI=0.05 and the plates incubated for 3 days at 37° C.+5% CO2. Following the incubation, the media is removed, and the cells are washed once with 250 μL PBS and fixed with 250 μL ice-cold 100% methanol for 10 minutes at 4° C. The methanol is then removed and the plates air dried for 5 minutes and then washed once with 250 μL PBS to remove any residual methanol. The wells are then blocked 60 µL/well of BlockAid (B10710, Thermo-Fisher) for 1 hour at RT on rocker at which point the blocking buffer is carefully aspirated. Primary antibody against the RSV F protein (MAB 858-1) is then diluted 1:2000 in SuperBlock (37515, Thermo Fisher) and 50 μL of the primary antibody solution is added to each well. The plates are incubated at room temperature for 1 hour with gentle agitation and then washed with 250 μL of PBS-Tween 3 times. A goat anti-mouse AlexaFluor 647 conjugated secondary antibody (Sigma, A21235) is then diluted 1:2000 and Hoescht 33342 (H3570) at 1:1000 in SuperBlock and 50 μL added to the wells for 1 hour at 37° C. After incubation the antibody solution is aspirated, and the wells are then washed with 250 μL of PBS-Tween 3 times. To keep cells from drying out, 100 μL of PBS is added to each well and the plates are sealed with black plate seal. Fluorescence at the 647 nm wavelength is measured using a Cellomics CellInsight CX7 machine. Compound activity is determined as a percentage of the % positive cells (or average intensity) compared to DMSO treated RSV infected well controls following subtraction of uninfected controls. The EC50 values are then calculated using nonlinear regression analysis in GraphPad Prism.

[1] = MT4 CC50 cytotoxicity (CC50-MT4-384); type: cell-based; settings: human; uninfected MT-4 cells, 4-5 days, Cell-Titer Glo; Example G
Experimental: Example G. HEp-2 and MT4 CC50
Cytotoxicity of the compounds was determined in uninfected cells using the cell viability reagent in a similar fashion as described before for other cell types (Cihlar et al., ANTIMICROB AGENTS CHEMOTHER. 2008, 52(2):655-65). HEp-2 (1.5×10^3 cells/well) and MT-4 (2×10^3 cells/well) cells were plated in 384-well plates and incubated with the appropriate medium containing 3-fold serially diluted compound ranging from 15 nM to 100,000 nM. Cells were cultured for 4-5 days at 37° C. Following the incubation, the cells were allowed to equilibrate to 25° C., and cell viability was determined by adding Cell-Titer Glo viability reagent. The mixture was incubated for 10 min, and the luminescence signal was quantified using an Envision plate reader. Untreated cell and cells treated at 2 μM puromycin (Sigma, St. Louis, MO) serve as 100% and 0% cell viability control, respectively. The percent of cell viability was calculated for each tested compound concentration relative to the 0% and 100% controls and the CC50 value was determined by non-linear regression as a compound concentration reducing the cell viability by 50%.

Row | EC50 (RSV strain A2) [µM] | Structure (SMILES) | CC50 [1] [µM]
1 | 9.75 | N#C[C@]1(CO)O[C@@H](c2ccc3c(N)ncnn23)[C@H](O)[C@@H]1O [Compound 0, (2R,3S,4R,5S)-5-(4-aminopyrrolo[1,2-f][1,2,4]triazin-7-yl)-3,4-dihydroxy-2-(hydroxymethyl)tetrahydrofuran-2-carbonitrile, reference compound] | –
2 | 19.2 | CCOC(=O)O[C@H]1[C@H](c2ccc3c(N)ncnn23)O[C@](C#N)(COC(C)=O)[C@H]1OC(=O)OCC [Compound 1, ((2R,3S,4S,5S)-5-(4-aminopyrrolo[2,1-f][1,2,4]triazin-7-yl)-2-cyano-3,4-bis((ethoxycarbonyl)oxy)tetrahydrofuran-2-yl)methyl acetate] | > 50
3 | 36.6 | CCOC(=O)O[C@H]1[C@H](c2ccc3c(N)ncnn23)O[C@](C#N)(COC(=O)C(C)C)[C@H]1OC(=O)OCC [Compound 3, ((2R,3S,4S,5S)-5-(4-aminopyrrolo[2,1-f][1,2,4]triazin-7-yl)-2-cyano-3,4-bis((ethoxycarbonyl)oxy)tetrahydrofuran-2-yl)methyl isobutyrate] | > 50
4 | 37.5 | CCOC(=O)O[C@H]1[C@H](c2ccc3c(N)ncnn23)O[C@](C#N)(COC(=O)CC(C)(C)C)[C@H]1OC(=O)OCC [Compound 4, ((2R,3S,4S,5S)-5-(4-aminopyrrolo[2,1-f][1,2,4]triazin-7-yl)-2-cyano-3,4-bis((ethoxycarbonyl)oxy)tetrahydrofuran-2-yl)methyl 3,3-dimethylbutanoate] | > 50
